In patent US10640514B2, “Polymorph of DPPIV inhibitor maleate and preparation method therefor” (SHANGHAI INSTITUTE OF MATERIA MEDICA, CHINESE ACADEMY OF …, priority 2016, dated 2020):

What was measured:
ob/ob mice = assay: Fasting blood glucose of ob/ob mice, chronic administration; assay type: in vivo
DPP IV [1] = target: T1, DPP IV (Rattus norvegicus, UniProt P14740); assay: Inhibition of DPP IV activity in normal rat plasma; assay type: in vivo
T1 construct: from tissue; host or cells: normal rat plasma
T1 sequence (P14740 37-767 limits assumed): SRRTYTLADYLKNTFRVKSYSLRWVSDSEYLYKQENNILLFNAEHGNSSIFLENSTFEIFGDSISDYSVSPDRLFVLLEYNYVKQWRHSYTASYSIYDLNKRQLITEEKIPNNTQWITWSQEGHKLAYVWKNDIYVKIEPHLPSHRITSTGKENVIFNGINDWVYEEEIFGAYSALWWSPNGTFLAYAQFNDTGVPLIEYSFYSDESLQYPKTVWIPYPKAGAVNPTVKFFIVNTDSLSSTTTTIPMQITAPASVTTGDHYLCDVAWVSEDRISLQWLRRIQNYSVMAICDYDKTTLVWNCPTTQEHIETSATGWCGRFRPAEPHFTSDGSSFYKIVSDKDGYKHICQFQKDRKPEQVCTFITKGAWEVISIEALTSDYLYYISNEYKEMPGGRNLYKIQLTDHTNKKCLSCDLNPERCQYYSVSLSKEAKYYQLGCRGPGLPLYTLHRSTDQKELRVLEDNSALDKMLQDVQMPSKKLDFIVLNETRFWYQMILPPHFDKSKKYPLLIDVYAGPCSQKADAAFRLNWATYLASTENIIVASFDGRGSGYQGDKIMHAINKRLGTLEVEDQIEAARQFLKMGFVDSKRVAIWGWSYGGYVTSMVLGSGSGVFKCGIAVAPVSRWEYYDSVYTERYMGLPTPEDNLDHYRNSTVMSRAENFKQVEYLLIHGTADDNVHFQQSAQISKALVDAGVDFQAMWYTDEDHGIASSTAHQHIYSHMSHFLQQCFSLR

DPP IV [2] = target: DPP IV (Homo sapiens, UniProt P27487); assay: DPP IV inhibitory activity and selectivity in vitro; assay type: biochemical
DPP IV (Homo sapiens, UniProt P27487), sequence (P27487 whole entry, species assumed): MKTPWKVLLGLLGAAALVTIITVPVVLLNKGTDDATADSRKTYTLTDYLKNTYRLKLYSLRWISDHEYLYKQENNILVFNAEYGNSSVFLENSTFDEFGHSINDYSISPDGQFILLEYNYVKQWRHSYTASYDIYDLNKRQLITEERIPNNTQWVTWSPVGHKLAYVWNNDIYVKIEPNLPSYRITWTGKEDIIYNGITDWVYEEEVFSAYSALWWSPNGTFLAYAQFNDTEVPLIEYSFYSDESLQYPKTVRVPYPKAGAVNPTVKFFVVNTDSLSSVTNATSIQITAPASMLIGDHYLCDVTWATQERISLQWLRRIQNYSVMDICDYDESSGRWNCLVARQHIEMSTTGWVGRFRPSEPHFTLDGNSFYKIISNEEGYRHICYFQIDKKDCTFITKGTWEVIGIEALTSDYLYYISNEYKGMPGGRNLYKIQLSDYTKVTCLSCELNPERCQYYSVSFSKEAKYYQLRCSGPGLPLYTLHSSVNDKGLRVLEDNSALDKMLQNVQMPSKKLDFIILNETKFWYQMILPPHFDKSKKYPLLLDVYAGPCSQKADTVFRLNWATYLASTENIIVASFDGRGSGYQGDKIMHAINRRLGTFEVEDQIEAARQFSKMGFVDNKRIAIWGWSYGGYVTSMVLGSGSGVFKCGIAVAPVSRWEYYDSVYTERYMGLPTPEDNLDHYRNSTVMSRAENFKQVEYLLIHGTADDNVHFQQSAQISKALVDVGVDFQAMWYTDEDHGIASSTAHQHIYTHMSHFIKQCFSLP

normal ICR mice = assay: Oral glucose tolerance in normal ICR mice; assay type: in vivo
DPP IV [3] = target: T2, DPP IV (Mus musculus, UniProt P28843); assay: Inhibition of DPP IV activity in normal mouse plasma; assay type: in vivo
T2 construct: from tissue; host or cells: normal mouse plasma
T2 sequence (P28843 37-760 limits assumed): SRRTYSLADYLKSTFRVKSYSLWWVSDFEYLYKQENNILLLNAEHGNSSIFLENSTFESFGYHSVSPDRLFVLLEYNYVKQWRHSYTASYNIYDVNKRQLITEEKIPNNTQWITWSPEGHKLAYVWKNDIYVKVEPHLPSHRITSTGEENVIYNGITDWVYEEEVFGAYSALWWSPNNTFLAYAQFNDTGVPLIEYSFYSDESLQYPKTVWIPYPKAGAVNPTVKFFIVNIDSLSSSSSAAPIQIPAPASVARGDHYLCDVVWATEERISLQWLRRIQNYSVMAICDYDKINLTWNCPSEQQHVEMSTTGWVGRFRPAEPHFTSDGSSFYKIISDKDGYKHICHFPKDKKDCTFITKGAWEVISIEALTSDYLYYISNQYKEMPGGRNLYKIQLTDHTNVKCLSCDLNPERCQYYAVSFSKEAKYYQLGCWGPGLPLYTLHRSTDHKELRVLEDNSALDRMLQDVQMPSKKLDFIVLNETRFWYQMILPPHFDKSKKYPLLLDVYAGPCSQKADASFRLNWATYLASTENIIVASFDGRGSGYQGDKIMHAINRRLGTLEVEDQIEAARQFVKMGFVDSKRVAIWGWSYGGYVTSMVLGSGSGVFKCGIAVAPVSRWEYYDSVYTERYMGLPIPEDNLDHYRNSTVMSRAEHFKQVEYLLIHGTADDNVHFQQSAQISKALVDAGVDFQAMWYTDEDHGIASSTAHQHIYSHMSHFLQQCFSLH

ICR mice = assay: Acute toxicity test of ICR mice; assay type: in vivo; conditions: 300 mg/kg administration group
db/db mice = assay: Fasting blood glucose of gene-deficient db/db mice, chronic administration; assay type: in vivo
Pharmacokinetics in dogs = assay type: in vivo
Pharmacokinetics in rats = assay type: in vivo
[4] = Hygroscopicity analysis (DVS); assay type: physicochemical; conditions: range of conventional storage humidity, 25° C.
Procedure: Dynamic vapor absorption (DVS) test/water absorption test rapidly measures the increase and loss of the moisture in the sample caused by flow carrier gas with set relative humidity (RH), wherein the sample is placed on a digital microbalance with high sensitivity and high stability at a self-suspension state, and then the adsorption/desorption of water vapor is measured by measuring the increase/decrease of mass of the material, thereby determining the hygroscopicity of the sample.
In the present invention, the test parameters of the DVS are as follows: Instrument type: SMS DVS Intrinsic; Non-hydrate: 0 to 95%-0% RH; Temperature: 25° C.; Hydrate: 40 to 95%-0% RH; Temperature: 25° C.

[5] = versus sitagliptin and vildagliptin

Compound: COC(=O)c1cc2nc(N3CCC[C@@H](N)C3)n(Cc3ccccc3C#N)c(=O)c2s1 [compound of formula I, (R)-methyl-2-(3-aminopiperidin-1-yl)-3-(2-cyanobenzyl)-4-carbonyl-3,4-dihydrothiophene[3,2-d]pyrimidine-6-carboxylic acid]
- fasting blood glucose (ob/ob mice): effectively reduce fasting blood glucose
- fasting blood glucose reduction compared with alogliptin (ob/ob mice): superior to positive control drug alogliptin
- inhibition of DPP IV activity in plasma (DPP IV [1]): effective in inhibiting DPP IV activity
- plasma DPP IV inhibitory activity compared with alogliptin (DPP IV [1]): superior to the marketed drug alogliptin
- mode of DPP IV inhibition (DPP IV [2]): selective, reversible competitive inhibitor
- DPP IV inhibitory activity (DPP IV [2]; in vitro): nanomolar level
- DPP IV inhibitory activity in vitro compared with marketed drugs (DPP IV [2]; [5]): superior to the marketed drugs sitagliptin and vildagliptin
- DPP IV selectivity in vitro compared with marketed drugs (DPP IV [2]; [5]): superior to the marketed drugs sitagliptin and vildagliptin
- effect on oral glucose tolerance compared with alogliptin (normal ICR mice): superior to that of alogliptin
- onset dose for increase of oral glucose tolerance (normal ICR mice): 0.1 mg/kg
- oral glucose tolerance (normal ICR mice; dose-dependent manner): increase oral glucose tolerance
- inhibition of DPP IV activity in plasma (DPP IV [3]): effective in inhibiting DPP IV activity
- plasma DPP IV inhibitory activity compared with alogliptin (DPP IV [3]): superior to the marketed drug alogliptin
- animal death in acute toxicity test (ICR mice): no animal dies
- fasting blood glucose (db/db mice): reduce its fasting blood glucose
- fasting blood glucose reduction compared with alogliptin (db/db mice): comparable to positive control drug alogliptin
- AUC0-t compared with alogliptin (Pharmacokinetics in dogs): superior to those of the marketed drug alogliptin
- half-life compared with alogliptin (Pharmacokinetics in dogs): superior to those of the marketed drug alogliptin
- AUC0-t compared with alogliptin (Pharmacokinetics in rats): superior to those of the marketed drug alogliptin
- half-life compared with alogliptin (Pharmacokinetics in rats): superior to those of the marketed drug alogliptin

Compound: COC(=O)c1cc2nc(N3CCC[C@@H](N)C3)n(Cc3ccccc3C#N)c(=O)c2s1.O=C(O)/C=C\C(=O)O [crystal form A, (R)-methyl-2-(3-aminopiperidin-1-yl)-3-(2-cyanobenzyl)-4-carbonyl-3,4-dihydrothiophene[3,2-d]pyrimidine-6-carboxylic acid maleate]
- hygroscopicity, variation range (DVS) [4]: less than 2.0%
